Results from the supplement of paper PMC10307832.

Compound: Cc1ccc(NC(=O)c2ccc(CN3CCN(C)CC3)cc2)cc1Nc1nccc(-c2cccnc2)n1 [Imatinib] + CC(=O)Nc1cccc(-n2c(=O)n(C3CC3)c(=O)c3c(Nc4ccc(I)cc4F)n(C)c(=O)c(C)c32)c1 [Trametinib] (partner 0.02 µM)
Experiment: relative viability (nuclei count vs DMSO), 5 days (fraction); higher = more cells survive
Procedure, shortened: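 Lung cancer cell lines were seeded in 1536-well plates and dosed by pin tool the next day, with either a single drug or a fixed anchor-drug dose combined with five library-drug doses (not always all listed) spaced in √10 steps. Five days later, one step fixed the cells and stained their nuclei (final 0.05% Triton X-100, 1% formaldehyde, 1 ug/ml Hoechst), and nuclei were counted on 4× images. Relative viability is the nuclei count in treated wells divided by the count in vehicle wells, and each value is the median of duplicate plates.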

| Cell Line | relative viability (first compound 0.02 µM) | relative viability (first compound 0.06325 µM) | relative viability (first compound 0.2 µM) | relative viability (first compound 0.6325 µM) | relative viability (first compound 2 µM) |
| --- | --- | --- | --- | --- | --- |
| CAL-12T | 0.336 | 0.324 | 0.321 | 0.411 | 0.398 |
| NCI-H727 | 0.334 | – | 0.411 | 0.392 | 0.411 |
| HARA | 0.583 | 0.574 | 0.633 | 0.467 | 0.727 |
| LK-2 | 0.783 | 0.61 | 0.919 | – | 0.87 |
| NCI-H2009 | 0.319 | 0.214 | 0.255 | 0.296 | 0.246 |
| NCI-H2087 | 0.179 | – | 0.221 | 0.189 | – |
| NCI-H838 | 0.504 | 0.549 | 0.608 | 0.569 | 0.486 |
| NCI-H2170 | 1 | 1.06 | 1.02 | 0.972 | 0.965 |
| NCI-H1666 | 0.82 | 0.855 | 0.823 | 1.09 | 0.924 |
| NCI-H1944 | 0.408 | 0.376 | 0.449 | 0.436 | 0.402 |
| LC-2-ad | 0.956 | – | 1.01 | 0.973 | 0.908 |
| EKVX | 0.376 | – | 0.295 | 0.325 | – |
| NCI-H322M | 0.45 | 0.48 | 0.546 | 0.535 | 0.507 |
| SK-MES-1 | 0.642 | 0.663 | 0.589 | 0.587 | 0.588 |
| H3255 | 0.589 | – | 0.635 | 0.616 | 0.609 |
| NCI-H1648 | 0.422 | 0.364 | 0.459 | 0.301 | 0.478 |
| NCI-H1395 | 1.07 | – | 1.13 | 0.999 | 0.997 |
| NCI-H441 | 0.537 | 0.459 | 0.572 | 0.517 | 0.37 |

| Cell Line | relative viability (first compound 0.02 µM) | relative viability (first compound 0.06325 µM) | relative viability (first compound 0.2 µM) | relative viability (first compound 0.6325 µM) | relative viability (first compound 2 µM) |
| --- | --- | --- | --- | --- | --- |
| NCI-H2405 | 0.623 | 0.538 | 0.637 | 0.516 | 0.634 |
| LOU-NH91 | 0.801 | 0.782 | 0.819 | 0.83 | 0.754 |
| HCC-44 | 1.1 | – | 1.24 | 0.94 | 1.11 |
| NCI-H520 | 0.775 | 0.531 | 0.669 | 0.674 | 0.8 |
| NCI-H1437 | 0.569 | 0.345 | 0.607 | 0.544 | 0.494 |
| COR-L23 | 0.636 | 0.494 | 0.72 | 0.697 | 0.648 |
| ChaGo-K-1 | 0.927 | – | 0.833 | 0.81 | 0.871 |
| NCI-H1975 | 0.364 | 0.273 | 0.375 | 0.41 | 0.326 |
| NCI-H1651 | 0.876 | 0.795 | 0.859 | 0.84 | 0.82 |
| NCI-H23 | 0.389 | 0.393 | 0.376 | 0.371 | 0.379 |
| LCLC-97TM1 | 0.235 | – | 0.183 | 0.207 | 0.172 |
| HCC-15 | 0.399 | – | 0.411 | 0.406 | 0.359 |
| PC-3 [JPC-3] | 0.719 | – | – | 0.724 | 0.621 |
| LU99A | 0.53 | 0.638 | 0.517 | 0.556 | 0.318 |
| NCI-H596 | 0.721 | 1.06 | 0.876 | 0.693 | – |
| HCC-827 | 0.483 | 0.517 | 0.646 | 0.562 | 0.515 |
| NCI-H1734 | 0.739 | – | 0.689 | 0.825 | 0.71 |
| NCI-H2347 | 0.35 | – | 0.309 | 0.285 | 0.273 |
